In brackets after ≈: the same amount, converted by molar mass.

The assay relates to HL-60. The experiment in a line: Cytotoxicity against human HL60 cells. The assay is classed as functional, cell-based.

`CC(=O)O[C@H]1C[C@H]2[C@@H]3CCC4=CC(=O)CC[C@]4(C)[C@H]3C[C@@H](OC(C)=O)[C@]2(C)[C@H]1[C@@](C)(O)CCCC(C)C` [NANJIOL B]: the IC50 turned out to be 5 µg/mL (≈ 9.68 µM).

The IC50 is the concentration that inhibits the measured activity by half. Low readings indicate inhibition by little substance, high ones a need for much substance.

Values taken from ChEMBL document CHEMBL1150137, “Nanjiols A-C, new steroids from the Chinese soft coral Nephthea bayeri” (J Nat Prod, 2002).
